Where no end group is shown, it is not given here.
Tests used:
[1] = system: TNFα; assay: Serum TNFα ELISA; assay type: in vivo, mouse; settings: metformin-treated db/db group (50 mg/kg), 30 days
Description: (§1) In vivo antidiabetic activity of the peptide was studied in diabetic animal model db/db mice. Male db/db mice with hyperglycemia were identified by checking their blood glucose level and selected for the study. Mice were divided into four groups, and the number of animals in each group was five. Blood glucose levels were measured using Accu-Chek glucometer and blood glucose measurement strips. The study was continued for 30 days. At the start of the study, fasting blood glucose in each animal was recorded, and OGTT was performed in each animal of all groups. To perform OGTT, the mice were fasted for 6 h, and then 30 min before oral glucose loading, the fasting blood glucose level in each mouse was recorded. After fasting of 6 h 3 g/kg body weight glucose was loaded orally and blood glucose at 0 minute was recorded simultaneously. Blood glucose was measured after every 30 min at 30, 60, 90, and 120 min after oral glucose loading. Time of oral glucose loading was considered as 0 min. After OGTT on day-1 peptide dosing was started. Dosing of M10 peptide at 10 mg/kg and 20 mg/kg body weight was started from day one on alternate day basis through intraperitoneal route for 30 days. Thus 15 doses of the peptide/drug were administered in each db/db mice over a period of 30 days. On final day, OGTT was performed again with the same procedure described above. […]

[2] = system: acetyl-CoA carboxylase-2 (ACC2); assay: ACC2 serine-80 phosphorylation, Western blot; assay type: cell-based, rat
Source text: (§2) In order to examine the peptide-induced activation of a protein, related to a signaling event, we have assessed its expression in the peptide-treated L6 myotubes with respect to the myotubes, not treated with the peptide and myotubes-treated with a positive control. For this purpose, we have performed Western blotting experiments by usual procedure after resolving the proteins of the whole cell lysates of L6 myotubes, treated at different experimental conditions by SDS-PAGE. Briefly describing the procedure, whole cell lysate was prepared by lysing the cells in radioimmunoprecipitation assay lysis buffer and equal amount of lysate was resolved on 10% SDS-PAGE. Resolved proteins were transferred to nitrocellulose membrane and the membrane was blocked with 5% skimmed milk solution. Incubated with specific primary (ratio of 1: 2500 of antibody to phosphate-buffered saline with Tween 20 (PBST) used for antibodies purchased from Sigma-Aldrich and Millipore, 1:1000 for antibodies purchased from Santa Cruz) and secondary antibodies (antibody concentration of 1:2000 in PBST), and the blots were developed using ChemiDoc ([34]).

[3] = system: adiponectin; assay: Serum adiponectin ELISA; assay type: in vivo, mouse; settings: metformin 50 mg/kg, 30 days; vs diabetic db/db control group
Description: as §1

[4] = system: IL-6; assay: Serum IL-6 ELISA; assay type: in vivo, mouse; settings: metformin-treated db/db group (50 mg/kg), 30 days
Description: as §1

[5] = system: AMPK protein; assay: AMPK activation (Thr-172 phosphorylation), Western blot; assay type: cell-based, rat; settings: peptides 5 μM 3 h; metformin 50 μM 6 h; normalised to total AMPK
Source text: as §2

[6] = system: db/db mice; assay: In vivo antidiabetic activity, OGTT and fasting blood glucose; design: species or system mouse; settings: metformin 50 mg/kg i.p. on alternate days for 30 days, n = 5
Description: In vivo antidiabetic activity of the peptide was studied in diabetic animal model db/db mice. Male db/db mice with hyperglycemia were identified by checking their blood glucose level and selected for the study. Mice were divided into four groups, and the number of animals in each group was five. Blood glucose levels were measured using Accu-Chek glucometer and blood glucose measurement strips. The study was continued for 30 days. At the start of the study, fasting blood glucose in each animal was recorded, and OGTT was performed in each animal of all groups. To perform OGTT, the mice were fasted for 6 h, and then 30 min before oral glucose loading, the fasting blood glucose level in each mouse was recorded. After fasting of 6 h 3 g/kg body weight glucose was loaded orally and blood glucose at 0 minute was recorded simultaneously. Blood glucose was measured after every 30 min at 30, 60, 90, and 120 min after oral glucose loading. Time of oral glucose loading was considered as 0 min. After OGTT on day-1 peptide dosing was started. […] Thus 15 doses of the peptide/drug were administered in each db/db mice over a period of 30 days. On final day, OGTT was performed again with the same procedure described above. Blood sample was collected from each group for serum analysis. Mice were sacrificed by CO2 induced hypoxia. […]

[7] = system: L6 myotubes; assay: Mitochondrial biogenesis assay using MitoTracker red; assay type: cell-based, rat; settings: 24 h incubation; rosiglitazone 10 μM; confocal microscopy, ImageJ
Description: Mitochondrial biogenesis was studied in L6 cells using mitochondrial stain MitoTracker CMXRos. The cells L6 was seeded in 4-chambered slide with a density of 20,000 cells per chamber. The cells were differentiated to myotubes following the protocol mentioned above. […] Following treatment with test peptides the cells were stained with MitoTracker red and Hoechst. The cells were then washed with PBS to remove the residual stains. Cells were then fixed with 4% paraformaldehyde and the slides were mounted using DPX. The slides were then imaged using confocal microscope. The excitation and emission wavelengths were fixed at 578 and 599 nm for red and 357 and […] for blue emission, respectively ([41]).

[8] = system: L6 myotubes; assay: ATP extraction and determination; assay type: cell-based, rat; settings: 24 h; rosiglitazone 10 μM; vehicle-treated control 4 μM; ATP determination kit
Description: Whole amount of ATP was extracted from L6-myotubes treated with leptin-1 and leptin-2 peptides and Rosiglitazone, according to the protocol mentioned in the literature ([42]). Briefly, the cells were harvested and pelleted by centrifugation. The harvested cells were incubated with 1% trichloroacetic acid and 4 mM EDTA solution for 10 min on ice for ATP extraction. The samples were centrifuged at 12,000 rpm for 10 min to pellet down the debris, and the supernatant was used for ATP determination. ATP determination was performed according to the protocol mentioned in the ATP determination kit’s manual from Thermo Fisher Scientific. Interference of trichloroacetic acid on ATP determination was avoided by 10× dilution of the sample in water.

[9] = system: L6 cells; settings: peptide up to 100 μM, 2 h; MTT, absorbance 540 nm
Description: Biological activity and toxicity of the purified peptides were studied on rat skeletal muscle cell line L6. L6 cell line was seeded, grown, and differentiated according to the protocols described earlier ([34]). In brief, cells were grown in low glucose-DMEM and differentiated using DMEM containing 2% fetal bovine serum supplemented 1% Antibiotic-Antimycotic ([38], [39]).

[10] = system: BALB/c mice; assay: In vivo acute toxicity and survival study; design: species or system mouse
Description: In vivo toxicity and survival study with the peptides were performed in BALB/c mice. Mice were divided into five groups, each group with five number of mice. One group was kept as control group and injected only with vehicle (Water). […] Dosing was done through intraperitoneal route and only a single dosing was performed. The mice were kept under observation for a week after peptide injection. After 1 week of observation, survival of mice in all groups was recorded. At seventh day, blood samples were collected from each mice in all the groups, and the serum was isolated to estimate aspartate transaminase and alanine transaminase level ([43]).

[11] = system: GLUT4; assay: GLUT4 expression, Western blot; assay type: cell-based, rat; settings: peptides 5 μM 3 h; insulin 100 nM 30 min; vs vehicle; beta-actin loading control
Source text: as §2

[12] = system: GLUT4; assay: GLUT4 translocation to plasma membrane, immunocytochemistry; assay type: cell-based, rat; settings: leptin-1 5 μM 3 h; insulin 100 nM 20 min; confocal imaging
Description: ICC analysis for GLUT4 translocation to PM was studied in L6 myotubes. L6 cells were grown and differentiated in 4-chambered slide following the protocol described above. The differentiated cells were treated with test peptide and positive control insulin for specified time period. Cells were fixed in formalin and perforated using 0.4% Triton X-100. The cells were then immunostained using anti-GLUT4 primary antibody (1:100 dilution) and incubated overnight at 4 °C. Cells were washed three times with PBST and then incubated with Alexa flour-488 tagged secondary antibody and incubated for 2 h. After 2 h, cells were again washed 5 times with PBST, and nuclear staining was performed by incubating the cells for 30 min with Hoechst nuclear stain. The cells were then again washed 3 times and the slide was mounted using DPX mounting media. Imaging of the slides was done using confocal microscope, blue range and green ranges filters were used ([34]).

[13] = system: L6 myotubes; assay: Glucose uptake assay with 2NBDG; assay type: cell-based, rat
Description: As described earlier ([34]), glucose uptake assay was performed in L6 myotubes using 2NBDG. Briefly describing, L6 cells were seeded and differentiated to myotubes as described above. Differentiated myotubes were serum fasted for 6 h with serum free DMEM and the cells were incubated with desired concentration of leptin-1 and leptin-2 peptides for specified period. […] Following peptide treatment, the cells were incubated with 200 μM of 2NBDG for 10 min and the residual 2NBDG was removed and washed with PBS. Cells were trypsinized and collected in fluorescence activated cell sorting tube for fluorescence measurement. To estimate the uptake of fluorescent glucose analog, fluorescence of the cells from different samples was measured using fluorescence activated cell sorting Aria instrument.

[14] = system: GLUT4; assay: GLUT4 translocation to plasma membrane, Western blot of cytosolic and membrane fractions; assay type: cell-based, rat; settings: leptin-1 5 μM 3 h; insulin 100 nM 20 min; vs vehicle-treated control
Description: Separation of cytosolic and membrane fraction was performed according to the protocol mentioned earlier ([34]). In brief, the harvested cells were resuspended in membrane fractionation buffer ([40]) and kept for 1 h with regular tapping. Cellular debris were removed by centrifugation at 800g for 10 min, and the supernatant was collected in fresh micro centrifuge tube, which contains the cytosolic and crude membrane fractions. Crude membrane and cytosolic fraction were separated by centrifugation at 12000 rpm for 10 min at 4 °C. The crude membrane pellet was resuspended in radioimmunoprecipitation assay lysis buffer to elute out membrane proteins and then centrifuged at 15000 rpm for 15 min. Whole process was performed on ice. Both the samples were than resolved on 10% SDS-PAGE ([38], [40]).
In order to examine the peptide-induced activation of a protein, related to a signaling event, we have assessed its expression in the peptide-treated L6 myotubes with respect to the myotubes, not treated with the peptide and myotubes-treated with a positive control. For this purpose, we have performed Western blotting experiments by usual procedure after resolving the proteins of the whole cell lysates of L6 myotubes, treated at different experimental conditions by SDS-PAGE. […]

[15] = system: AKT; assay: AKT activation (p-AKT), Western blot; assay type: cell-based, rat; settings: leptin-1 5 μM 3 h; insulin 100 nM 30 min; vs vehicle; normalised to total AKT
Source text: as §2

[16] = system: IRS1; assay: IRS1 expression, Western blot; assay type: cell-based, rat; settings: peptides 5 μM 3 h; insulin 100 nM 30 min; vs vehicle
Source text: as §2

[17] = 10, 20, 40 and 80 mg/kg, day 7, comparable to vehicle-treated control

CN(C)C(=N)N=C(N)N [metformin]
inhibition of TNFα production [1]: 44%
phosphorylation of S80 of ACC2 after dorsomorphin pretreatment ([2]; dorsomorphin 1 h, then leptin-1 5 μM 3 h or metformin): prevented
phosphorylation of S80 residue of ACC2 ([2]; peptides 5 μM 3 h, metformin positive control): significantly increased S80 residue phosphorylation
increase in serum adiponectin production [3]: 2.6 fold
inhibition of IL-6 production [4]: 52%
AMPK Thr-172 phosphorylation [5]: 2 fold
fasting blood glucose (FBG) [6]: reduced FBG
glucose tolerance (OGTT) ([6]; oral glucose 3 g/kg): improved glucose tolerance

CN(CCOc1ccc(CC2SC(=O)NC2=O)cc1)c1ccccn1 (centres unmarked) [rosiglitazone]
mitochondrial biogenesis (Mitotracker red fluorescence) [7]: significantly increased mitochondrial biogenesis
ATP production [8]: 13 µM

KQKVTGLDFIPGLHPIL-NH2 [leptin-1]
viability of L6 cells [9]: ~95%
survival ([10]; 10, 20, 40 and 80 mg/kg body weight, intraperitoneal, 7 days): 100%
serum alanine transaminase level [10, 17]: normal
serum aspartate transaminase level [10, 17]: normal
body weight ([10]; all peptide-treated groups, until end of 7 days): stable body weights

VVALSRLQGSLQDMLW-NH2 [leptin-2]
viability of L6 cells [9]: ~95%

insulin: human insulin (Sigma-Aldrich), positive control at 100 nM
GLUT4 expression [11]: 1.6 fold
GLUT4 translocation to PM (ICC, green fluorescence on PM) [12]: appreciable increase in green fluorescence
glucose uptake, positive control ([13]; insulin 100 nM, Fig. 2D): significantly increased glucose uptake
glucose uptake without inhibitor ([13]; leptin-1 5 μM 3 h, insulin 100 nM 30 min, Fig. 5C): 2.4 fold
GLUT4 translocation to PM [14]: 4 fold
AKT activation (p-AKT) [15]: 4.2 fold
IRS1 activation and expression [16]: 1.6 fold
